34 compounds from patent USRE50724E1, “4-membered ring carboxamides used as nematicides” (SYNGENTA CROP PROTECTION AG, priority 2013, dated 2026) can be followed below.

One assay relates to Heterodera schachtii. Put plainly: Heterodera schachtii (sugar beet cyst nematode), nematicide, contact activity: juvenile paralysis in 16-well assay plates. Type of assay: in vivo. The conditions noted are these: 200 ppm, approx. 500 juveniles per well, 24 hours incubation at 25° C. in darkness, read-out: nematode immobilization compared to the untreated control. Here is the method:
Heterodera schachtii (Sugar Beet Cyst Nematode), Nematicide, Contact Activity
The tested application rate of each compound was 200 ppm. All solutions were brought to a concentration of 400 ppm, respectively, as they were subsequently diluted by adding the equivalent amount of water containing juvenile nematodes. After preparation of the suspensions, 1 ml of each suspension and concentration was transferred to 16-well assay plates with a total of three replicates per treatment. Approximately 500 juveniles of Heterodera schachtii were added in 1 ml of water to each well. Nematodes in water served as controls. The plates were placed in a dark box and stored at room temperature. Nematode paralysis was determined after 24 hours incubation at 25° C. in darkness.
Take `O=C(N[C@H]1CC[C@H]1c1ccc(Cl)cc1Cl)c1ccsc1I` [Compound 61.96, N-[(1S,2S)-2-(2,4-dichlorophenyl)cyclobutyl]-2-iodothiophene-3-carboxamide]: the pest or weed control at 200 ppm is greater than 75%.
As for `O=C(N[C@H]1CC[C@H]1c1ccc(Cl)cc1Cl)c1ccsc1C(F)(F)F` [Compound 61.97, N-[(1S,2S)-2-(2,4-dichlorophenyl)cyclobutyl]-2-(trifluoromethyl)thiophene-3-carboxamide], the pest or weed control at 200 ppm was greater than 75%.
Still for that read-out and setting: under `O=C(N[C@H]1CC[C@H]1c1ccc(Cl)cc1Cl)c1ncsc1Br` [Compound 61.98, 5-bromo-N-[(1S,2S)-2-(2,4-dichlorophenyl)cyclobutyl]-1,3-thiazole-4-carboxamide] stands greater than 75%.
Still for that read-out and setting: under `Cc1cccnc1C(=O)N[C@H]1CC[C@H]1c1ccc(F)cc1F` [Compound 61.108, N-[(1S,2S)-2-(2,4-difluorophenyl)cyclobutyl]-3-methylpyridine-2-carboxamide] stands greater than 75%; under `Cc1ccccc1C(=O)N[C@H]1CC[C@H]1c1ccc(F)cc1F` [Compound 61.109, N-[(1S,2S)-2-(2,4-difluorophenyl)cyclobutyl]-2-methylbenzamide], greater than 75%.
For `O=C(N[C@H]1CC[C@H]1c1ccc(F)cc1F)c1ncccn1` [Compound 61.110, N-[(1S,2S)-2-(2,4-difluorophenyl)cyclobutyl]pyrimidine-2-carboxamide], the pest or weed control at 200 ppm was greater than 75%.
As to `O=C(N[C@H]1CC[C@H]1c1ccc(F)cc1F)c1ccccc1Cl` [Compound 61.113, 2-chloro-N-[(1S,2S)-2-(2,4-difluorophenyl)cyclobutyl]benzamide], the pest or weed control at 200 ppm was greater than 75%.
`O=C(N[C@H]1CC[C@H]1c1ccc(F)cc1F)c1cnccc1C(F)(F)F` [Compound 61.114, N-[(1S,2S)-2-(2,4-difluorophenyl)cyclobutyl]-4-(trifluoromethyl)pyridine-3-carboxamide]: the pest or weed control at 200 ppm was greater than 75%.
Turning to `O=C(N[C@H]1CC[C@H]1c1ccc(F)cc1F)c1ccccc1Br` [Compound 61.116, 2-bromo-N-[(1S,2S)-2-(2,4-difluorophenyl)cyclobutyl]benzamide], the pest or weed control at 200 ppm was greater than 75%.
Consider `O=C(N[C@H]1CC[C@H]1c1ccc(F)cc1F)c1c(F)cccc1Cl` [Compound 61.117, 2-chloro-N-[(1S,2S)-2-(2,4-difluorophenyl)cyclobutyl]-6-fluorobenzamide], for which the pest or weed control at 200 ppm was greater than 75%.
In the case of `Cc1cccc(F)c1C(=O)N[C@H]1CC[C@H]1c1ccc(F)cc1F` [Compound 61.118, N-[(1S,2S)-2-(2,4-difluorophenyl)cyclobutyl]-2-fluoro-6-methylbenzamide], the pest or weed control at 200 ppm was greater than 75%.
Still for that read-out and setting: under `Cc1nccnc1C(=O)N[C@H]1CC[C@H]1c1ccc(F)cc1F` [Compound 61.119, N-[(1S,2S)-2-(2,4-difluorophenyl)cyclobutyl]-3-methylpyrazine-2-carboxamide] stands greater than 75%; under `O=C(N[C@H]1CC[C@H]1c1ccc(F)cc1F)c1ccccc1F` [Compound 61.121, N-[(1S,2S)-2-(2,4-difluorophenyl)cyclobutyl]-2-fluorobenzamide], greater than 75%; under `O=C(N[C@H]1CC[C@H]1c1ccc(F)cc1F)c1cncnc1C(F)(F)F` [Compound 61.122, N-[(1S,2S)-2-(2,4-difluorophenyl)cyclobutyl]-4-(trifluoromethyl)pyrimidine-5-carboxamide], greater than 75%.
Consider `O=C(N[C@H]1CC[C@H]1c1ccc(F)cc1F)c1ncccc1F` [Compound 61.124, N-[(1S,2S)-2-(2,4-difluorophenyl)cyclobutyl]-3-fluoropyridine-2-carboxamide], for which the pest or weed control at 200 ppm was greater than 75%.
On to `O=C(N[C@H]1CC[C@H]1c1ccc(F)cc1F)c1ccccc1I` [Compound 61.125, N-[(1S,2S)-2-(2,4-difluorophenyl)cyclobutyl]-2-iodobenzamide], for which the pest or weed control at 200 ppm is greater than 75%.
With `Cn1cccc1C(=O)N[C@H]1CC[C@H]1c1ccc(F)cc1F` [Compound 61.126, N-[(1S,2S)-2-(2,4-difluorophenyl)cyclobutyl]-1-methylpyrrole-2-carboxamide], the pest or weed control at 200 ppm was greater than 75%.
Regarding `Cn1cc(C(=O)N[C@H]2CC[C@H]2c2ccc(F)cc2F)c(C(F)F)n1` [Compound 61.127, 3-(difluoromethyl)-N-[(1S,2S)-2-(2,4-difluorophenyl)cyclobutyl]-1-methylpyrazole-4-carboxamide], the pest or weed control at 200 ppm is greater than 75%.
`O=C(N[C@H]1CC[C@H]1c1ccc(F)cc1F)c1sccc1Cl` [Compound 61.129, 3-chloro-N-[(1S,2S)-2-(2,4-difluorophenyl)cyclobutyl]thiophene-2-carboxamide]: the pest or weed control at 200 ppm was greater than 75%.
The same measure, in the same setting: under `O=C(N[C@H]1CC[C@H]1c1ccc(F)cc1F)c1c(F)cccc1C(F)(F)F` [Compound 61.131, N-[(1S,2S)-2-(2,4-difluorophenyl)cyclobutyl]-2-fluoro-6-(trifluoromethyl)benzamide] stands greater than 75%; under `O=C(N[C@H]1CC[C@H]1c1ccc(F)cc1F)c1cccnc1Cl` [Compound 61.133, 2-chloro-N-[(1S,2S)-2-(2,4-difluorophenyl)cyclobutyl]pyridine-3-carboxamide], greater than 75%; under `O=C(N[C@H]1CC[C@H]1c1ccc(F)cc1F)c1ncsc1Br` [Compound 61.136, 5-bromo-N-[(1S,2S)-2-(2,4-difluorophenyl)cyclobutyl]-1,3-thiazole-4-carboxamide], greater than 75%.
In the case of `O=C(N[C@H]1CC[C@H]1c1ccc(F)cc1F)c1ccsc1C(F)(F)F` [Compound 61.137, N-[(1S,2S)-2-(2,4-difluorophenyl)cyclobutyl]-2-(trifluoromethyl)thiophene-3-carboxamide], the pest or weed control at 200 ppm was greater than 75%.
On the same count and under the same terms, under `Cc1ncccc1C(=O)N[C@H]1CC[C@H]1c1ccc(F)cc1F` [Compound 61.140, N-[(1S,2S)-2-(2,4-difluorophenyl)cyclobutyl]-2-methylpyridine-3-carboxamide] stands greater than 75%.
Turning to `O=C(N[C@H]1CC[C@H]1c1ccc(F)cc1F)c1ncccc1Cl` [Compound 61.141, 3-chloro-N-[(1S,2S)-2-(2,4-difluorophenyl)cyclobutyl]pyridine-2-carboxamide], the pest or weed control at 200 ppm is greater than 75%.
For the compound `O=C(N[C@H]1CC[C@H]1c1ccc(F)cc1F)c1sccc1Br` [Compound 61.143, 3-bromo-N-[(1S,2S)-2-(2,4-difluorophenyl)cyclobutyl]thiophene-2-carboxamide], the pest or weed control at 200 ppm is greater than 75%.
As to `Cc1occc1C(=O)N[C@H]1CC[C@H]1c1ccc(F)cc1F` [Compound 61.144, N-[(1S,2S)-2-(2,4-difluorophenyl)cyclobutyl]-2-methylfuran-3-carboxamide], the pest or weed control at 200 ppm is greater than 75%.
In the case of `O=C(N[C@H]1CC[C@H]1c1ccc(F)cc1F)c1ncccc1Br` [Compound 61.146, 3-bromo-N-[(1S,2S)-2-(2,4-difluorophenyl)cyclobutyl]pyridine-2-carboxamide], the pest or weed control at 200 ppm is greater than 75%.
Same read-out and setting: under `O=C(N[C@H]1CC[C@H]1c1ccc(F)cc1F)c1ncccc1C(F)(F)F` [Compound 61.151, N-[(1S,2S)-2-(2,4-difluorophenyl)cyclobutyl]-3-(trifluoromethyl)pyridine-2-carboxamide] stands greater than 75%; under `O=C(N[C@H]1CC[C@H]1c1ccc(Cl)cc1Cl)c1nccnc1Br` [Compound 61.162, 3-bromo-N-[(1S,2S)-2-(2,4-dichlorophenyl)cyclobutyl]pyrazine-2-carboxamide], greater than 75%.
The same measure, in the same setting: under `O=C(N[C@H]1CC[C@H]1c1ccc(Cl)cc1Cl)c1nnccc1C(F)(F)F` [Compound 61.167, N-[(1S,2S)-2-(2,4-dichlorophenyl)cyclobutyl]-4-(trifluoromethyl)pyridazine-3-carboxamide] stands greater than 75%; under `O=C(N[C@H]1CC[C@H]1c1ccc(Cl)cc1Cl)c1ccoc1Br` [Compound 61.173, 2-bromo-N-[(1S,2S)-2-(2,4-dichlorophenyl)cyclobutyl]furan-3-carboxamide], greater than 75%; under `O=C(N[C@H]1CC[C@H]1c1ccc(Cl)cc1Cl)c1ccoc1C(F)(F)F` [Compound 61.174, N-[(1S,2S)-2-(2,4-dichlorophenyl)cyclobutyl]-2-(trifluoromethyl)furan-3-carboxamide], greater than 75%.

Still in this assay, the particulars now being: 24 h, read-out: nematode immobilization compared to the untreated control.
Consider `Cc1nc(C(F)(F)F)c(C(=O)N[C@H]2CC[C@H]2c2ccc(Cl)cc2Cl)s1` [Compound 61.93, N-[(1S,2S)-2-(2,4-dichlorophenyl)cyclobutyl]-2-methyl-4-(trifluoromethyl)-1,3-thiazole-5-carboxamide], for which the pest or weed control at 200 ppm is greater than 75%.
